According to PubChem BioAssay AID256 (DTP/NCI, 2004):
Several values for one entry are separate records, joined by “and”; a condition that tells them apart may be missing. Equal values may be shown once. Toxic doses and inconclusive results are not listed. How the source made its calls: active means survival T/C of 150% or more; inactive means T/C below 125% in these data.

Tested on: CD2F1 mice, L1210 leukemia ip, survival T/C
Assay: NCI In Vivo Anticancer Drug Screen. Data for tumor model L1210 Leukemia (intraperitoneal) in CD2F1 (CDF1) mice
Settings: higher = longer survival
Procedure, shortened: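 Vehicle-treated tumor-bearing mice served as controls (C) for compound-treated mice (T). Reported figure is T divided by C.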

[1] = endpoint: mean survival time, dose: 100.0 mg/kg/injection, schedule: Q04DX002 (ip), vehicle: saline with Tween-80
[2] = endpoint: mean survival time, dose: 200.0 mg/kg/injection, schedule: Q04DX002 (ip), vehicle: saline with Tween-80
[3] = endpoint: mean survival time, dose: 100.0 mg/kg/injection, schedule: Q01DX009 (ip), vehicle: saline with Tween-80
[4] = endpoint: mean survival time, dose: 200.0 mg/kg/injection, schedule: Q01DX009 (ip), vehicle: saline with Tween-80
[5] = endpoint: mean survival time, dose: 100.0 mg/kg/injection, schedule: Q01DX001 (ip), vehicle: saline
[6] = endpoint: mean survival time, dose: 200.0 mg/kg/injection, schedule: Q01DX001 (ip), vehicle: saline
[7] = endpoint: mean survival time, dose: 100.0 mg/kg/injection, schedule: Q04DX003 (ip), vehicle: saline with Tween-80
[8] = endpoint: mean survival time, dose: 200.0 mg/kg/injection, schedule: Q04DX003 (ip), vehicle: saline with Tween-80
[9] = endpoint: mean survival time, dose: 400.0 mg/kg/injection, schedule: Q04DX003 (ip), vehicle: saline with Tween-80
[10] = endpoint: mean survival time, dose: 100.0 mg/kg/injection, schedule: Q01DX001 (ip), vehicle: saline with Tween-80
[11] = endpoint: mean survival time, dose: 200.0 mg/kg/injection, schedule: Q01DX001 (ip), vehicle: saline with Tween-80
[12] = endpoint: mean survival time, dose: 400.0 mg/kg/injection, schedule: Q01DX001 (ip), vehicle: saline with Tween-80

Measured: T/C

O=c1cc([O-])[n+](C2OC(CO)C(O)C2O)c2sccn12 (stereo not given)
inactive: endpoint: median survival time, dose: 10.63 mg/kg/injection, schedule: Q01DX005 (ip), vehicle: water 102 % of control | endpoint: median survival time, dose: 12.5 mg/kg/injection, schedule: Q01DX005 (ip), vehicle: saline 102 % of control | endpoint: median survival time, dose: 21.25 mg/kg/injection, schedule: Q01DX005 (ip), vehicle: water 98 % of control | endpoint: median survival time, dose: 25.0 mg/kg/injection, schedule: Q01DX005 (ip), vehicle: saline 101 % of control | endpoint: median survival time, dose: 42.5 mg/kg/injection, schedule: Q01DX005 (ip), vehicle: water 98 % of control | endpoint: median survival time, dose: 50.0 mg/kg/injection, schedule: Q01DX005 (ip), vehicle: saline 98 % of control | endpoint: median survival time, dose: 85.0 mg/kg/injection, schedule: Q01DX005 (ip), vehicle: water 102 % of control | endpoint: median survival time, dose: 100.0 mg/kg/injection, schedule: Q01DX005 (ip), vehicle: saline 97 % of control | endpoint: median survival time, dose: 170.0 mg/kg/injection, schedule: Q01DX005 (ip), vehicle: water 100 % of control | endpoint: median survival time, dose: 200.0 mg/kg/injection, schedule: Q01DX005 (ip), vehicle: saline 98 % of control

C#CC1(OC(=O)Nc2ccccc2)CCCCC1
inactive: [1] 100 % of control | [2] 92 % of control

CCOP(=S)(OCC)OP(=S)(OCC)OCC
inactive: endpoint: mean survival time, dose: 4.0 mg/kg/injection, schedule: Q04DX003 (ip), vehicle: other 95 % of control

O=C(O)CCC(=O)Nc1ccccc1C(=O)O
inactive: [3] 102 % of control | [4] 93 % of control | endpoint: mean survival time, dose: 400.0 mg/kg/injection, schedule: Q01DX009 (ip), vehicle: saline with Tween-80 96 % of control

CCSCCNC1=C(C)C(=O)C2=C(C1=O)[C@H](COC(N)=O)[C@]1(OC)[C@H]3[C@@H](CN21)N3C (stereo not given in full)
inactive: endpoint: mean survival time, dose: 1.5 mg/kg/injection, schedule: Q01DX001 (ip), vehicle: distilled water + Tween-80 103 % of control | endpoint: mean survival time, dose: 3.0 mg/kg/injection, schedule: Q01DX001 (ip), vehicle: distilled water + Tween-80 96 % of control and 103 % of control and 109 % of control | endpoint: mean survival time, dose: 6.0 mg/kg/injection, schedule: Q01DX001 (ip), vehicle: distilled water + Tween-80 104 % of control and 107 % of control and 108 % of control | endpoint: mean survival time, dose: 12.0 mg/kg/injection, schedule: Q01DX001 (ip), vehicle: distilled water + Tween-80 115 % of control and 102 % of control and 110 % of control | endpoint: mean survival time, dose: 24.0 mg/kg/injection, schedule: Q01DX001 (ip), vehicle: distilled water + Tween-80 121 % of control and 124 % of control | endpoint: mean survival time, dose: 48.0 mg/kg/injection, schedule: Q01DX001 (ip), vehicle: distilled water + Tween-80 115 % of control

O=C(O)C(CSC(c1ccccc1)(c1ccccc1)c1ccccc1)N=Cc1cccs1 (stereo not given)
active: endpoint: mean survival time, dose: 66.0 mg/kg/injection, schedule: Q01DX009 (ip), vehicle: saline 163 % of control | [3] 172 % of control | endpoint: mean survival time, dose: 100.0 mg/kg/injection, schedule: Q01DX009 (ip), vehicle: saline 163 % of control | endpoint: mean survival time, dose: 100.0 mg/kg/injection, schedule: Q01DX009 (ip), vehicle: suspension in saline 173 % of control
inactive: endpoint: mean survival time, dose: 12.5 mg/kg/injection, schedule: Q01DX009 (ip), vehicle: saline 109 % of control | endpoint: mean survival time, dose: 12.5 mg/kg/injection, schedule: Q01DX009 (ip), vehicle: suspension in saline 113 % of control | endpoint: mean survival time, dose: 25.0 mg/kg/injection, schedule: Q01DX009 (ip), vehicle: suspension in saline 111 % of control | [4] 118 % of control | endpoint: mean survival time, dose: 200.0 mg/kg/injection, schedule: Q01DX009 (ip), vehicle: saline 90 % of control | endpoint: mean survival time, dose: 200.0 mg/kg/injection, schedule: Q01DX009 (ip), vehicle: suspension in saline 94 % of control

CCC(=O)c1cc(O)ccc1O
inactive: endpoint: mean survival time, dose: 50.0 mg/kg/injection, schedule: Q01DX009 (ip), vehicle: other 109 % of control | [5] 101 % of control | endpoint: mean survival time, dose: 100.0 mg/kg/injection, schedule: Q01DX009 (ip), vehicle: other 109 % of control | [6] 101 % of control | endpoint: mean survival time, dose: 200.0 mg/kg/injection, schedule: Q01DX009 (ip), vehicle: other 108 % of control | endpoint: mean survival time, dose: 400.0 mg/kg/injection, schedule: Q01DX001 (ip), vehicle: saline 102 % of control

N/C(=N\N=C\c1c(F)c(F)c(F)c(F)c1F)N[N+](=O)[O-]
inactive: [7] 106 % of control | [8] 98 % of control | [9] 96 % of control

Cc1ccc(S(=O)(=O)ON/N=C2\C(=O)C3CCC2C3)cc1 (stereo not given)
inactive: endpoint: mean survival time, dose: 25.0 mg/kg/injection, schedule: Q04DX002 (ip), vehicle: saline with Tween-80 100 % of control | endpoint: mean survival time, dose: 50.0 mg/kg/injection, schedule: Q04DX002 (ip), vehicle: saline with Tween-80 96 % of control | [1] 112 % of control

Cc1c2c(cc3c1CCC1(C)C3CCC1C(C)CCC(C)C(C)C)CC(O)CC2 (stereo not given)
inactive: endpoint: mean survival time, dose: 75.0 mg/kg/injection, schedule: Q01DX001 (ip), vehicle: saline with Tween-80 92 % of control | endpoint: mean survival time, dose: 150.0 mg/kg/injection, schedule: Q01DX001 (ip), vehicle: saline with Tween-80 90 % of control | endpoint: mean survival time, dose: 300.0 mg/kg/injection, schedule: Q01DX001 (ip), vehicle: saline with Tween-80 90 % of control

CCOc1ccc(-n2c(O)c(N=Nc3ccccc3OC)c(=O)n(-c3ccc(OC)cc3)c2=S)cc1
inactive: [10] 101 % of control | [11] 95 % of control | [12] 94 % of control

O=C1N(CCO)CCN1/N=C/c1ccc([N+](=O)[O-])o1
inactive: [7] 93 % of control | [8] 102 % of control | [9] 95 % of control

Cc1cccc[n+]1CC[n+]1ccccc1C
inactive: [5] 100 % of control | [6] 101 % of control

O=S(=O)(N(c1ccccc1)S(=O)(=O)C(F)(F)F)C(F)(F)F
inactive: endpoint: mean survival time, dose: 50.0 mg/kg/injection, schedule: Q01DX009 (ip), vehicle: Klucel (hydroxypropylcellulose) (HPC) 91 % of control | endpoint: mean survival time, dose: 100.0 mg/kg/injection, schedule: Q01DX009 (ip), vehicle: Klucel (hydroxypropylcellulose) (HPC) 88 % of control | endpoint: mean survival time, dose: 200.0 mg/kg/injection, schedule: Q01DX009 (ip), vehicle: Klucel (hydroxypropylcellulose) (HPC) 88 % of control

COc1ncnc2c1cnn2C1OC(CO)C(O)C1O (stereo not given)
inactive: endpoint: mean survival time, dose: 12.5 mg/kg/injection, schedule: Q01DX005 (ip), vehicle: water 94 % of control | endpoint: mean survival time, dose: 25.0 mg/kg/injection, schedule: Q01DX005 (ip), vehicle: water 96 % of control | endpoint: mean survival time, dose: 50.0 mg/kg/injection, schedule: Q01DX005 (ip), vehicle: water 96 % of control | endpoint: mean survival time, dose: 100.0 mg/kg/injection, schedule: Q01DX005 (ip), vehicle: water 104 % of control | endpoint: mean survival time, dose: 200.0 mg/kg/injection, schedule: Q01DX005 (ip), vehicle: water 107 % of control

COc1ccc2c(c1)C(=O)C(Br)CC2 (stereo not given)
inactive: [10] 101 % of control | [3] 98 % of control and 101 % of control | [1] 101 % of control and 102 % of control | [7] 108 % of control | [11] 93 % of control | [4] 97 % of control and 98 % of control | [2] 100 % of control and 104 % of control | [8] 97 % of control | [12] 95 % of control | endpoint: mean survival time, dose: 400.0 mg/kg/injection, schedule: Q04DX002 (ip), vehicle: saline with Tween-80 103 % of control and 104 % of control | [9] 110 % of control

COc1ccc(/C=C2\OC(=O)C(Cc3cc(Cl)c4c(c3)OCO4)C2(O)C(C)C)cc1 (stereo not given)
inactive: endpoint: median survival time, dose: 6.13 mg/kg/injection, schedule: Q01DX005 (ip), vehicle: Klucel (hydroxypropylcellulose) (HPC) 95 % of control | endpoint: median survival time, dose: 12.25 mg/kg/injection, schedule: Q01DX005 (ip), vehicle: Klucel (hydroxypropylcellulose) (HPC) 96 % of control | endpoint: median survival time, dose: 24.5 mg/kg/injection, schedule: Q01DX005 (ip), vehicle: Klucel (hydroxypropylcellulose) (HPC) 103 % of control | endpoint: median survival time, dose: 49.0 mg/kg/injection, schedule: Q01DX005 (ip), vehicle: Klucel (hydroxypropylcellulose) (HPC) 91 % of control

S=C1NC(c2ccccc2)Nc2ccccc21 (stereo not given)
inactive: [7] 91 % of control | [8] 95 % of control

CCCCN(C)C(=O)Oc1cccc(NC(=O)OC)c1
inactive: [3] 94 % of control | [4] 100 % of control

[CH3][Sb]([CH3])([CH3])([O]C(=O)CC#N)[O]C(=O)CC#N
inactive: [7] 92 % of control | [8] 92 % of control | [9] 97 % of control

CC([NH-])c1ccccc1.[Cl][Pt]([Cl])[Cl] (stereo not given)
inactive: endpoint: mean survival time, dose: 100.0 mg/kg/injection, schedule: Q04DX003 (ip), vehicle: saline 101 % of control | endpoint: mean survival time, dose: 200.0 mg/kg/injection, schedule: Q04DX003 (ip), vehicle: saline 100 % of control | endpoint: mean survival time, dose: 400.0 mg/kg/injection, schedule: Q04DX003 (ip), vehicle: saline 101 % of control

Cc1ccc2cc(O)ccc2c1
inactive: endpoint: mean survival time, dose: 50.0 mg/kg/injection, schedule: Q01DX009 (ip), vehicle: saline with Tween-80 97 % of control | [3] 98 % of control
